Measured values taken from the supplement of paper PMC10307832.

Columns and labels:
[1] = compound: CN(C)C(=N)NC(=N)N [Metformin] + CCNC(=O)c1noc(-c2cc(C(C)C)c(O)cc2O)c1-c1ccc(CN2CCOCC2)cc1 [Luminespib] (partner 0.01 µM); assay: relative viability (nuclei count vs DMSO), 5 days (fraction); higher = more cells survive
In short: (§1)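 For relative viability, nuclei counts in treated wells were divided by those in vehicle wells. Lung cancer cell lines had been pin-tool dosed in 1536-well plates the day after seeding and cultured for 5 days, then fixed and stained in one step (final 0.05% Triton X-100, 1% formaldehyde, 1 ug/ml Hoechst) and imaged at 4×. Doses were one drug alone or a fixed anchor-drug dose plus five library-drug doses (not always all listed) in √10 steps, and values are duplicate-plate medians.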

[2] = compound: CN(C)C(=N)NC(=N)N [Metformin] + Cc1nc(Nc2ncc(C(=O)Nc3c(C)cccc3Cl)s2)cc(N2CCN(CCO)CC2)n1 [Dasatinib] (partner 0.075 µM); assay: as above
In short: as §1

Cell Line | relative viability ([1]; first compound 10 µM) | relative viability ([1]; first compound 31.62 µM) | relative viability ([1]; first compound 100 µM) | relative viability ([1]; first compound 316.23 µM) | relative viability ([1]; first compound 1000 µM) | relative viability ([2]; first compound 10 µM) | relative viability ([2]; first compound 31.62 µM) | relative viability ([2]; first compound 100 µM) | relative viability ([2]; first compound 316.23 µM) | relative viability ([2]; first compound 1000 µM)
LCLC-103H | 0.934 | 1.18 | 1.06 | 0.961 | 1.04 | 0.598 | 0.579 | 0.579 | 0.514 | 0.588
NCI-H2405 | 0.585 | 0.581 | 0.774 | 0.664 | 0.737 | 0.272 | 0.265 | 0.253 | 0.272 | 0.255
NCI-H522 | 1.4 | 1.27 | 1.65 | 1.54 | 1.33 | 1.07 | 1.15 | 1.18 | 1.02 | 1.07
